The values below come from patent publication US20100173987A1, “ACTIVE AGENT COMBINATIONS WITH INSECTICIDAL AND ACARICIDAL PROPERTIES” (priority 2006, published 2010).

Holding throughout (assay type): in vivo
One data set relates to Orius laevigalus. Kind of data set: Greenhouse test on bell pepper: number of beneficial species scored. The protocol:
(§1) In a greenhouse of a size of 4000 m^2 run in accordance with an IPM program (no insecticide used), bell pepper plants of the cultivar “Requena” on perlite substrates are, about 11 weeks after transplanting, tested comparatively against Western flower thrips (Frankliniella occidentalis) using spiromesifen (240 SC) and the non-beneficial-species-sparing standard formetanate (50 SP) at the stated application rates. Two applications are carried out at an interval of 14 days. Application is by knapsack sprayer. A water application rate of 1000 l/ha is applied.
(§2) Evaluations are carried out 7, 14, 21 and 28 days after the first treatment. As a natural enemy (beneficial species) of the Western flower thrips, use is made of Orius laevigalus from the family of the pirate bugs (Anthochoridae). Evaluation is carried out by counting the number of Western flower thrips on 15 open flowers. The number of beneficial species is also scored.

Data set [1] deals with Frankliniella occidentalis. Kind of data set: Greenhouse test on bell pepper against Western flower thrips. The settings on record: on 15 open flowers. The method, then:
as §1, §2

Another data set concerns Bemisia tabaci. Kind of data set: Bemisia tabaci test (cotton leaves, spray, mirid bugs added). The settings on record: 0.16 ppm, infested cotton leaves sprayed. The method, then:
Solvent: 7 parts by weight of dimethylformamide Emulsifier: 2 parts by weight of alkylaryl polyglycol ether
To produce a suitable preparation of active compound, 1 part by weight of active compound is mixed with the stated amounts of solvent and emulsifier, and the concentrate is diluted with emulsifier-containing water to the desired concentration.
Cotton leaves (Gossypium hirsutum) infested by the whitefly (Bemisia tabacii) are treated by being sprayed with the preparation of active compound at the desired concentration.
After the desired period of time, a defined amount of mirid bugs (Macrolophus caliginosus) is added.
After the desired period of time, the kill of the pest in % is determined. 100% means that all whiteflies have been killed; 0% means that none of the whiteflies have been killed. The determined kill rates are entered into Colby's formula.

[2] abbreviates: application 0.2 % (50 SP), 7 d after first treatment.
Setting [3] is: application 0.2 % (50 SP), 14 d after first treatment.
Where [4] appears, read: application 0.2 % (50 SP), 21 d after first treatment.
[5] abbreviates: application 0.2 % (50 SP), 28 d after first treatment.
Setting [6] is: application 0.06 % (240 SC), 14 d after first treatment.
Where [7] appears, read: application 0.06 % (240 SC), 21 d after first treatment.
The mark [8] stands for this setting: application 0.06 % (240 SC), 28 d after first treatment.

Consider `CNC(=O)Oc1cccc(N=CN(C)C)c1` [Formetanate, reference compound], for which the “Number Orius laevigalus larvae + adults” value came to 0.3 in the data set with Orius laevigalus (setting [2]), 0 in the data set on Orius laevigalus (setting [3]), 0.3 with Orius laevigalus (setting [4]) and 0.3 in the data set on Orius laevigalus (setting [5]). Besides, the “Number Frankliniella occidentalis larvae + adults” value in data set [1] (setting [2]) came to 2; in data set [1] (setting [3]) it was 3.5; in data set [1] (setting [4]) it was 8; in data set [1] (setting [5]), 18.8.
For the compound `Cc1cc(C)c(C2=C(OC(=O)CC(C)(C)C)C3(CCCC3)OC2=O)c(C)c1` [Spiromesifen (Ex. I-b-1), Spiromesifen], the “Number Orius laevigalus larvae + adults” value turned out to be 2.5 in the data set with Orius laevigalus (application 0.06 % (240 SC), 7 d after first treatment); 3.7 with Orius laevigalus (setting [6]); 7.3 in the data set on Orius laevigalus (setting [7]); 9 in the data set on Orius laevigalus (setting [8]). Further, the “Kill in % after 14 d” value in the data set on Bemisia tabaci came out at 1.25%. Also, the “Number Frankliniella occidentalis larvae + adults” value is given as 16.7 in data set [1] (application 0.06 % (240 SC), 7 d after first treatment, bell pepper greenhouse); 13.7 in data set [1] (setting [6]); 9 in data set [1] (setting [7]); 13.7 in data set [1] (setting [8]).
